Earlier results in US7354574B2, “Treatment of ocular disease” (Advanced Ocular Systems Limited, priority 2002, dated 2008).

Conditions: administered systemically

In the case of `C=CC[C@@H]1/C=C(\C)C[C@H](C)C[C@H](OC)[C@H]2O[C@@](O)(C(=O)C(=O)N3CCCC[C@H]3C(=O)O[C@H](/C(C)=C/[C@@H]3CC[C@@H](O)[C@H](OC)C3)[C@H](C)[C@@H](O)CC1=O)[C@H](C)C[C@@H]2OC` [tacrolimus], the “Renal and hepatic toxicity” value is listed as “significant renal and hepatic toxicity”.
